Reference: patent US10611779B2, “Fused bicyclic heterocycle derivatives as pesticides” (Bayer CropScience Aktiengesellschaft, priority 2016, dated 2020)
Values belong to the compound of their own block, whether it stands above or below them.

Columns and labels:
[1] = log P (neutral) by HPLC on reversed-phase column (EEC Directive 79/831 Annex V.A8); type: physicochemical; conditions: reversed-phase C18 HPLC column, reversed-phase C 18, 55° C., neutral range pH 7.8
Method: The log P values are measured according to EEC Directive 79/831 Annex V.A8 by HPLC (high-performance liquid chromatography) on a reversed-phase column (C 18). Temperature: 55° C. The LC-MS determination in the neutral range is effected at pH 7.8 with 0.001 molar aqueous ammonium hydrogencarbonate solution and acetonitrile as eluents; linear gradient from 10% acetonitrile to 95% acetonitrile. Called log P (neutral) in the table. Calibration is effected using unbranched alkan-2-ones (having 3 to 16 carbon atoms) with known log P values (log P values determined on the basis of the retention times by linear interpolation between two successive alkanones).

Ctenocephalides felis [2] = assay: Ctenocephalides felis - in vitro contact tests with adult cat fleas; type: in vivo; conditions: application rate 5 μg/cm^2 (=500 g/ha), coated glass tube, after 48 h
Method: Ctenocephalides felis—In Vitro Contact Tests with Adult Cat Fleas For the coating of the test tubes, 9 mg of active ingredient are first dissolved in 1 ml of acetone p.a. and then diluted to the desired concentration with acetone p.a. 250 μl of the solution are distributed homogeneously on the inner walls and the base of a 25 ml glass tube by turning and rocking on an orbital shaker (rocking rotation at 30 rpm for 2 h). With 900 ppm of active ingredient solution and internal surface area 44.7 cm^2, given homogeneous distribution, an area-based dose of 5 μg/cm^2 is achieved. After the solvent has evaporated off, the tubes are populated with 5-10 adult cat fleas (Ctenocephalides felis), sealed with a perforated plastic lid and incubated in a horizontal position at room temperature and ambient humidity. After 48 h, efficacy is determined. To this end, the tubes are stood upright and the fleas are knocked to the base of the tube. Fleas which remain motionless at the base or move in an uncoordinated manner are considered to be dead or moribund. […] 100% efficacy means that all the fleas were dead or moribund. 0% efficacy means that no fleas were harmed.

Myzus persicae [3] = assay: Myzus persicae - spray test; type: in vivo; conditions: application rate 100 g/ha; Chinese cabbage leaf discs, all stages; after 5 days
Method: Myzus persicae—Spray Test [table] To produce a suitable active ingredient formulation, 1 part by weight of active ingredient is dissolved with the specified parts by weight of solvent and made up to the desired concentration with water containing an emulsifier concentration of 1000 ppm. To produce further test concentrations, the formulation is diluted with emulsifier-containing water. Discs of Chinese cabbage leaves (Brassica pekinensis) infested by all stages of the green peach aphid (Myzus persicae) are sprayed with an active ingredient formulation of the desired concentration. After 5 days, the efficacy in % is determined. 100% means that all the aphids have been killed; 0% means that no aphids have been killed.

Lucilia cuprina = Lucilia cuprina test; type: in vivo; conditions: application rate 100 ppm; minced horsemeat; after 2 days
Method: Lucilia cuprina Test Solvent: dimethyl sulfoxide To produce a suitable active ingredient formulation, 10 mg of active ingredient are mixed with 0.5 ml of dimethyl sulfoxide, and the concentrate is diluted with water to the desired concentration. About 20 L1 larvae of the Australian sheep blowfly (Lucilia cuprina) are transferred into a test vessel containing minced horsemeat and the active ingredient formulation of the desired concentration. After 2 days, the kill in % is determined. 100% means that all the larvae have been killed; 0% means that no larvae have been killed.

Ctenocephalides felis [4] = assay: Ctenocephalides felis - oral test; type: in vivo; conditions: application rate 100 ppm; in citrated cattle blood; after 2 days
Method: Ctenocephalides felis—Oral Test Solvent: dimethyl sulfoxide To produce a suitable active ingredient formulation, 10 mg of active ingredient are mixed with 0.5 ml of dimethyl sulfoxide. Dilution with citrated cattle blood gives the desired concentration. About 20 unfed adult cat fleas (Ctenocephalides felis) are placed into a chamber which is closed at the top and bottom with gauze. A metal cylinder whose bottom end is closed with parafilm is placed onto the chamber. The cylinder contains the blood/active ingredient formulation, which can be imbibed by the fleas through the parafilm membrane. After 2 days, the kill in % is determined. 100% means that all of the fleas have been killed; 0% means that none of the fleas have been killed.

Myzus persicae [5] = assay: Myzus persicae - oral test; type: in vivo; conditions: microtitre plate, after 5 days
Method: Myzus persicae—Oral Test [table] To produce a suitable active ingredient formulation, 1 part by weight of active ingredient is dissolved with the stated parts by weight of solvent and made up to the desired concentration with water. 50 μl of the active ingredient preparation are transferred into microtitre plates and made up to a final volume of 200 μl with 150 μl of IPL41 insect medium (33%+15% sugar). Subsequently, the plates are sealed with parafilm, which a mixed population of green peach aphids (Myzus persicae) within a second microtitre plate is able to puncture and imbibe the solution. After 5 days, the efficacy in % is determined. 100% means that all the aphids have been killed; 0% means that no aphids have been killed.

Tetranychus urticae = Tetranychus urticae - spray test, OP-resistant; type: in vivo; conditions: application rate 20 g/ha; bean leaf discs, all stages; after 6 days
Method: Tetranychus urticae—Spray Test, OP-Resistant
(§1) To produce a suitable active ingredient formulation, 1 part by weight of active ingredient is dissolved with the specified parts by weight of solvent and made up to the desired concentration with water containing an emulsifier concentration of 1000 ppm. To produce further test concentrations, the formulation is diluted with emulsifier-containing water.
Discs of bean leaves (Phaseolus vulgaris) infested with all stages of the greenhouse red spider mite (Tetranychus urticae) are sprayed with an active ingredient formulation of the desired concentration.
After 6 days, the efficacy in % is determined. 100% means that all the spider mites have been killed; 0% means that no spider mites have been killed.

Boophilus microplus = Boophilus microplus - injection test; type: in vivo; conditions: application rate 20 μg/animal; injection into engorged adult female ticks; after 7 days
Method: Boophilus microplus—Injection Test Solvent: dimethyl sulfoxide To produce a suitable active ingredient formulation, 10 mg of active ingredient are mixed with 0.5 ml of solvent and the concentrate is diluted to the desired concentration with solvent. 1 μl of the active ingredient solution is injected into the abdomen of 5 engorged adult female cattle ticks (Boophilus microplus). The animals are transferred into dishes and kept in a climate-controlled room. Efficacy is assessed after 7 days by laying of fertile eggs. Eggs which are not visibly fertile are stored in a climate-controlled cabinet until the larvae hatch after about 42 days. An efficacy of 100% means that none of the ticks has laid any fertile eggs; 0% means that all the eggs are fertile.

Spodoptera frugiperda = Spodoptera frugiperda - spray test; type: in vivo; conditions: application rate 100 g/ha; maize leaf discs; after 7 days
Method: Spodoptera frugiperda—Spray Test [table] To produce a suitable active ingredient formulation, 1 part by weight of active ingredient is dissolved with the specified parts by weight of solvent and made up to the desired concentration with water containing an emulsifier concentration of 1000 ppm. To produce further test concentrations, the formulation is diluted with emulsifier-containing water. Leaf discs of maize (Zea mays) are sprayed with an active ingredient formulation of the desired concentration and, after drying, populated with caterpillars of the armyworm (Spodoptera frugiperda). After 7 days, the efficacy in % is determined. 100% means that all the caterpillars have been killed; 0% means that no caterpillar has been killed.

Phaedon cochleariae = Phaedon cochleariae - spray test; type: in vivo; conditions: application rate 100 g/ha; Chinese cabbage leaf discs; after 7 days
Method: Phaedon cochleariae—Spray Test
as §1
Discs of Chinese cabbage leaves (Brassica pekinensis) are sprayed with an active ingredient formulation of the desired concentration and, after drying, populated with larvae of the mustard beetle (Phaedon cochleariae).
After 7 days, the efficacy in % is determined. 100% means that all the beetle larvae have been killed; 0% means that no beetle larvae have been killed.

Musca domestica = Musca domestica test; type: in vivo; conditions: application rate 100 ppm; sponge with sugar solution; after 2 days
Method: Musca domestica Test Solvent: dimethyl sulfoxide To produce a suitable active ingredient formulation, 10 mg of active ingredient are mixed with 0.5 ml of dimethyl sulfoxide, and the concentrate is diluted with water to the desired concentration. Vessels containing a sponge treated with sugar solution and the active ingredient formulation of the desired concentration are populated with 10 adult houseflies (Musca domestica). After 2 days, the kill in % is determined. 100% means that all of the flies have been killed; 0% means that none of the flies have been killed.

SMILES: Cn1c(-c2nn3ccccc3c2Br)nc2cc(C(F)(F)F)ncc21 [2-(3-Bromopyrazolo[1,5-a]pyridin-2-yl)-3-methyl-6-(trifluoromethyl)imidazo[4,5-c]pyridine]
- chromatographic logP [1]: 2.86

SMILES: CCS(=O)(=O)c1c(-c2nc3cc(C(F)(F)F)ncc3n2C)nn2ccccc12 [Example I-1, 2-(3-Ethylsulfonylpyrazolo[1,5-a]pyridin-2-yl)-3-methyl-6-(trifluoromethyl)imidazo[4,5-c]pyridine]
- efficacy (fleas dead or moribund) (Ctenocephalides felis [2]): 100%
- efficacy (aphids killed) (Myzus persicae [3]): 100%
- efficacy (kill of L1 larvae) (Lucilia cuprina): 100%
- efficacy (kill of fleas) (Ctenocephalides felis [4]): 100%
- efficacy (aphids killed) (Myzus persicae [5]; application rate 4 ppm): 100%
- efficacy (aphids killed) (Myzus persicae [5]; application rate 20 ppm): 100%
- chromatographic logP [1]: 2.26

SMILES: CCS(=O)(=O)c1c(-c2nc3cc(C(F)(F)F)cnc3n2C)nn2ccccc12 [Example I-4]
- efficacy (fleas dead or moribund) (Ctenocephalides felis [2]): 100%
- efficacy (aphids killed) (Myzus persicae [3]): 90%
- efficacy (kill of L1 larvae) (Lucilia cuprina): 100%
- efficacy (aphids killed) (Myzus persicae [5]; application rate 4 ppm): 100%
- efficacy (caterpillars killed) (Spodoptera frugiperda): 100%
- efficacy (beetle larvae killed) (Phaedon cochleariae): 100%
- efficacy (kill of adult houseflies) (Musca domestica): 90%

SMILES: CCS(=O)(=O)c1c(-c2nc3cc(C(F)(F)F)ncc3n2C)nn2cc(Cl)ccc12 [Example I-5]
- efficacy (aphids killed) (Myzus persicae [5]; application rate 4 ppm): 100%
- efficacy (caterpillars killed) (Spodoptera frugiperda): 100%
- efficacy (beetle larvae killed) (Phaedon cochleariae): 100%

SMILES: CCS(=O)(=O)c1c(-c2nc3cc(C(F)(F)F)cnc3n2C)nn2cc(Cl)ccc12 [Example I-6]
- efficacy (aphids killed) (Myzus persicae [3]): 90%
- efficacy (aphids killed) (Myzus persicae [5]; application rate 4 ppm): 100%
- efficacy (caterpillars killed) (Spodoptera frugiperda): 100%
- efficacy (beetle larvae killed) (Phaedon cochleariae): 100%

Now from value to compound, other results behind:

- chromatographic logP [1]: 1.58
SMILES: CCS(=O)(=O)c1c(-c2nc3cc(C(F)(F)F)ncc3n2C)nn2cccnc12 [Example I-2, 2-(3-Ethylsulfonylpyrazolo[1,5-a]pyrimidin-2-yl)-3-methyl-6-(trifluoromethyl)imidazo[4,5-c]-pyridine]
- efficacy (aphids killed) (Myzus persicae [3]): 90%
- efficacy (aphids killed) (Myzus persicae [5]; application rate 4 ppm): 100%
- efficacy (aphids killed) (Myzus persicae [5]; application rate 20 ppm): 100%
- efficacy (spider mites killed) (Tetranychus urticae): 90%

- chromatographic logP [1]: 2
SMILES: CCS(=O)(=O)c1c(-c2nc3cc(C(F)(F)F)ncc3n2C)nn2c(C)cc(C)nc12 [Example I-3, 3-Ethylsulfonyl-5,7-dimethyl-2-[3-methyl-6-(trifluoromethyl)imidazo[4,5-c]pyridin-2-yl]-pyrazolo[1,5-a]pyrimidine]
- efficacy (aphids killed) (Myzus persicae [3]): 100%
- efficacy (kill of L1 larvae) (Lucilia cuprina): 97%
- efficacy (kill of fleas) (Ctenocephalides felis [4]): 100%
- efficacy (aphids killed) (Myzus persicae [5]; application rate 4 ppm): 100%
- efficacy (aphids killed) (Myzus persicae [5]; application rate 20 ppm): 100%
- efficacy (no laying of fertile eggs) (Boophilus microplus): 100%
